Experimental findings from paper PMC3006138, “Fexinidazole – A New Oral Nitroimidazole Drug Candidate Entering Clinical Development for the Treatment of Sleeping Sickness” (PLoS Neglected Tropical Diseases, 2010) are described below.

For orientation: IC50 means the point on the concentration scale where inhibition reaches its midpoint. Usually NOAEL stands for the highest tested level that showed no adverse finding.

Data set [1] concerns T. b. gambiense clinical isolates. As to the kind of experiment: In vitro trypanocidal assay, clinical isolates. The format is cell-based. The following applies: Trypanosoma brucei, six recent clinical isolates, data not shown. Here is the method:
Parasites were cultured with or without the test article at a concentration of 3×10^4/mL in Minimal Essential Medium, according to Baltz et al., with the following modifications: 0.2 mM 2-mercaptoethanol, 1 mM Na-pyruvate, 0.5 mM hypoxanthine and 15% heat inactivated horse serum at 37°C in 5% CO2 in 96-well microtitre plates for 72 h. 10 µL of Alamar Blue was added for the final 3 h to determine viability. The assay was assessed by reading the fluorescence in each well at an excitation wavelength of 536 nm and at an emission wavelength of 588 nm. The IC50 values were calculated from the sigmoidal inhibition curves. For cytotoxicity, 4×10^4/mL L-6 rat skeletal myoblast cells were used, and incubations and assessments carried out as above.

A short description of data set [2]: 28-day repeated-dose oral toxicity. It is filed as in vivo. Here is the method:
In the rat repeated-dose toxicokinetic study, fexinidazole was administered orally by gavage once a day for 28 consecutive days to ten or fifteen Crl:CD (SD)IGS BR rats/sex/group at doses of 50, 200, or 800 mg/kg/day. A control group received the vehicle alone (5% Tween 80/0.5% methocel). Ten animals/sex/group were sacrificed at the end of the treatment period on day 29 or 30 of study. The remaining 5 animals/sex/group in the control and high-dose groups were sacrificed on day 43 at the end of a 2-weeks observation period. Systemic exposure to fexinidazole and its sulfoxide and sulfone metabolites was evaluated in three additional animals/sex/group. Samples were taken at predose, and 30 min, 1, 2, 4, 8 and 24 h after dosing on days 1, 14, and 28, and in addition at 48 and 72 h after treatment on day 28.
Study Report for NervianoMS Study 0504-2007
Fexinidaxole, a 5-nitroimidazole derivative biologically active against Trypanosoma parasites (T.b. rhodesiense and T.b. brucei ), was administered orally by gavage once daily for 28 consecutive days to ten or fifteen Crl:CD (SD)IGS BR rats/sex/group at doses of 50, 200 and 800 mg/kg/day in a volume of 10 mL/kg.
A control group received the vehicle alone (5% Tween 80 in 0.5% Methyl cellulose 400 cP […]
Ten animals/sex/group were sacrificed at the end of the treatment period on Day 29 or 30 of study. The remaining 5 animals/sex in the control and high-dose groups were sacrificed on Day 43 at the end of a two-week observation period.
Mortality, behavior and general condition were observed daily. Body weight was recorded pretest, and on Days 1, 8, 14, 21, 28, 35 and 42. Food consumption was recorded from Days […]
pre-test, and on Days 28 and 42. Hematological and clinical chemistry examinations and urine analysis were performed on Days 29 and 43.
Post-mortem examinations performed at the end of the treatment period (Day 29 or 30) or the recovery period (Day 43) included necropsy, organ weights and histological […]
Systemic exposure information was obtained from three additional animals/sex/group on Days 1 and 14 at different time-points up to 24 hours after treatment and on Day 28 at different time-points up to 72 hours after treatment.
No meaningful clinical signs or changes in ophthalmoscopic examinations were seen. […]
animals at 200 and 800 mg/kg for the entire treatment period. When treatment was […]
weight gain in comparison with controls.
Nerviano Medical Sciences […]
Humidity 55% +/- 15; monitored
Air Approximately twenty air changes per hour; monitored
Lighting Approximate 12-hour light, 12-hour dark cycle. The lighting cycle could be interrupted for performance of protocol-defined activities.
Water Municipal main, water available ad libitum
Diet 4RF21 GLP pellets ad libitum, supplied by Mucedola
Actual conditions were continuously monitored and recorded, and records were retained.
Release of each lot of feed by the manufacturers was based on analysis of composite samples of each lot, which met specifications set by the manufacturers. Water was periodically analyzed for chemical and microbial impurities. No contaminants were identified in the food or water which were expected to interfere with the results or conclusions of this study.
All the above environmental conditions, as well as all the procedures adopted throughout the study for housing and handling the animals, were in strict compliance with EEC and Italian Guidelines for Laboratory Animal Welfare.
6.2.2. Allocation/Randomization
The animals were selected and distributed into experimental groups using random number tables (Fisher and Yates). The randomization was performed during the pretest period on February 1, 2008 for all animals.
One male animal (No. 2846) assigned to satellite study group for toxicokinetic purposes, found dead on Day 2 of study, was replaced with another one taken from the same arrival batch of animals, in order to maintain the number of three animals/sex/group for subsequent […]
blood samplings. […]

≈ marks a conversion by molar mass, not a printed value.

With `CSc1ccc(OCc2ncc([N+](=O)[O-])n2C)cc1` [Fexinidazole, 1-methyl-2-((p-(methylthio)phenoxy)methyl)-5-nitroimidazole], the IC50 in data set [1] was in the range of 0.3 to 0.93 µg/mL (≈ 1.07 to 3.33 µM). Moreover, the mortality result in data set [2] (all groups) is “No compound-related mortality occurred”. For the same molecule, the NOAEL at 28 days in data set [2] (both sexes, Crl:CD (SD)IGS BR, rat, in vivo, po) was 200 mg/kg/day. In data set [2] (rat, in vivo), the decrease in hemoglobin worked out at 8%, the decrease in neutrophils result was “about 46%”, the decrease in triglycerides is recorded as 50% and the increase in globulins result is listed as “+13%”. Further, in data set [2] (rat, in vivo), the “increase in total cholesterol” value is given as “+51%”; the liver enzymes entry was “no increase in liver enzymes including AST and ALT”; the liver histopathology result is “Minimal to slight hypertrophy of the centrilobular hepatocytes”.
